Experimental findings from US9416124B2, “Substituted 2-alkyl-1-OXO-N-phenyl-3-heteroaryl-1,2,3,4-tetrahydroisoquinoline-4-carboxamides for antimalarial therapies” (ST. JUDE CHILDREN'S RESEARCH HOSPITAL, priority 2011, dated 2016) are described below.

The first experiment deals with P. falciparum 3D7. Kind of experiment: P. falciparum drug susceptibility assay (3D7). The following applies: 3D7 strain; racemate unless indicated; read-out: 3D7_EC50. The experiment is classed as cell-based, Plasmodium falciparum. As for the experimental part:
Parasites were grown as previously described in Mallari, J. P., Guiguemde, W. A., and Guy, R. K., Antimalarial activity of thiosemicarbazones and purine derived nitriles, Bioorg Med Chem Lett 19 (13), 3546 (2009). […] DMSO inhibitor stock solutions were pin-transferred (V&P Scientific) into the assay plate and background fluorescence was measured in both relevant channels (485 nm /535 nm, 612 nm /665 nm) in an Envision plate reader (PerkinElmer). Then 20 μl of a synchronized culture suspension (1% rings, 10% hematocrit) were added per well, thus making a final hematocrit and parasitemia of 5% and 1% respectively. Assay plates were incubated for 72 h and parasitemia was determined based on a modified protocol. (Smilkstein, M. et al., Simple and inexpensive fluorescence-based technique for high-throughput antimalarial drug screening. Antimicrob Agents Chemother 48 (5), 1803 (2004)). Briefly, 5 μl of mixed DNA dye solution in RPMI (5X SYBR Green I, 1 μM YOYO-3, 1% v/v Triton X-100, 1 mg/ml saponin) were added per well, assay plates were shaken for 30 s at 2000 rpm, incubated in the dark for 4 h, then read as previously described.
On to `N#Cc1cc(F)cc(NC(=O)C2c3ccccc3C(=O)N(CC(F)(F)F)C2c2cn[nH]c2)c1` (single isomer, unassigned; isomer d) [Example 20 d-isomer, d-N-(3-cyano-5-fluorophenyl)-1-oxo-3-(1H-pyrazol-4-yl)-2-(2,2,2-trifluoroethyl)-1,2,3,4-tetrahydroisoquinoline-4-carboxamide], for which the EC50 was found to be 8 nM.
Regarding `N#Cc1cc(NC(=O)C2c3ccccc3C(=O)N(CC(F)(F)F)C2c2cccnc2)ccc1F` (single isomer, unassigned; isomer d) [Example 6 d-isomer, d-N-(3-cyano-4-fluoro) -1-Oxo-3-pyridin-3-yl-2-(2,2,2-trifluoro-ethyl)-1,2,3,4-tetrahydro-isoquinoline-4-carboxamide], the EC50 was 17 nM.

Staying with this experiment, now noted: Plasmodium falciparum; 3D7 strain; racemate unless indicated; read-out: 3D7_EC50.
Take `CC(C)CN1C(=O)c2ccccc2[C@H](C(=O)Nc2cc(Cl)cc(C#N)c2)[C@H]1c1cccnc1` (racemic) [Example 11, N-(3-chloro-5-cyanophenyl)-2-isobutyl-1-oxo-3-(pyridin-3-yl)-1,2,3,4-tetrahydroisoquinoline-4-carboxamide]: the EC50 was found to be 20 nM.
Take `CC(C)CN1C(=O)c2ccccc2[C@H](C(=O)Nc2cccc(C#N)c2)[C@H]1c1cccnc1` (racemic) [Example 17, N-(3-cyanophenyl)-2-isobutyl-1-oxo-3-(pyridin-3-yl)-1,2,3,4-tetrahydroisoquinoline-4-carboxamide]: the EC50 came to 58 nM.
Same read-out and setting: then `N#Cc1cc(NC(=O)[C@H]2c3ccccc3C(=O)N(CC(F)(F)F)[C@@H]2c2cn[nH]c2)ccc1F` (racemic) [Example 2, N-(3-cyano-4-fluorophenyl)-1-oxo-3-(1H-pyrazol-4-yl)-2-(2,2,2-trifluoroethyl)-1,2,3,4-tetrahydroisoquinoline-4-carboxamide], with 41 nM; and `O=C(Nc1cccc(OC(F)(F)F)c1)[C@H]1c2ccccc2C(=O)N(CC(F)(F)F)[C@@H]1c1cccnc1` (racemic) [Example 30, 1-oxo-3-(pyridin-3-yl)-2-(2,2,2-trifluoroethyl)-N-(3-(trifluoromethoxy)phenyl)-1,2,3,4-tetrahydroisoquinoline-4-carboxamide], with 25 nM.
Turning to `N#Cc1cccc(NC(=O)[C@H]2c3ccccc3C(=O)N(CC(F)(F)F)[C@@H]2c2cccnc2)c1` (racemic) [Example 18, N-(3-cyanophenyl)-1-oxo-3-(pyridin-3-yl)-2-(2,2,2-trifluoroethyl)-1,2,3,4-tetrahydroisoquinoline-4-carboxamide], the EC50 amounted to 24 nM.
`O=C(Nc1cccc(OC(F)(F)F)c1)[C@H]1c2ccccc2C(=O)N(CC(F)(F)F)[C@@H]1c1cn[nH]c1` (racemic) [Example 26, 1-oxo-3-(1H-pyrazol-4-yl)-2-(2,2,2-trifluorocthyl)-N-(3-(trifluoromethoxy)phenyl)-1,2,3,4-tetrahydroisoquinoline-4-carboxamide]: the EC50 is 19 nM.
Still for that read-out and setting: then `N#Cc1cc(Cl)cc(NC(=O)[C@H]2c3ccccc3C(=O)N(CC(F)(F)F)[C@@H]2c2cccnc2)c1` (racemic) [Example 12, N-(3-chloro-5-cyanophenyl)-1-oxo-3-(pyridin-3-yl)-2-(2,2,2-trifluoroethyl)-1,2,3,4-tetrahydroisoquinoline-4-carboxamide], with 36 nM; and `N#Cc1cc(NC(=O)[C@H]2c3cc(F)c(F)cc3C(=O)N(CC(F)(F)F)[C@@H]2c2cn[nH]c2)ccc1F` (racemic) [Example 59], with 7 nM; and `N#Cc1cccc(NC(=O)[C@H]2c3ccccc3C(=O)N(CC(F)(F)F)[C@@H]2c2cn[nH]c2)c1` (racemic) [Example 14, N-(3-cyanophenyl)-1-oxo-3-(1H-pyrazol-4-yl)-2-(2,2,2-trifluoroethyl)-1,2,3,4-tetrahydroisoquinoline-4-carboxamide], with 30 nM.
Consider `CC(C)CN1C(=O)c2ccccc2[C@H](C(=O)Nc2cccc(OC(F)(F)F)c2)[C@H]1c1cn[nH]c1` (racemic) [Example 25, 2-isobutyl-1-oxo-3-(1H-pyrazol-4-yl)-N-(3-(trifluoromethoxy)phenyl)-1,2,3,4-tetrahydroisoquinoline-4-carboxamide], for which the EC50 was 11 nM.
As to `Cn1cc([C@@H]2[C@@H](C(=O)Nc3ccc(F)c(C#N)c3)c3ccccc3C(=O)N2CC(F)(F)F)cn1` (racemic) [Example 4, N-(3-cyano-4-fluorophenyl)-3-(1-methyl-1H-pyrazol-4-yl)-1-oxo-2-(2,2,2-trifluoroethyl)-1,2,3,4-tetrahydroisoquinoline-4-carboxamide], the EC50 is 24 nM.
On the same count and under the same terms, then `CC(C)CN1C(=O)c2ccccc2[C@H](C(=O)Nc2cccc(C#N)c2)[C@H]1c1cn[nH]c1` (racemic) [Example 13, N-(3-cyanophenyl)-2-isobutyl-1-oxo-3-(1H-pyrazol-4-yl)-1,2,3,4-tetrahydroisoquinoline-4-carboxamide], with 7 nM; and `O=C(Nc1ccc(F)c(OC(F)(F)F)c1)[C@H]1c2ccccc2C(=O)N(CC(F)(F)F)[C@@H]1c1cn[nH]c1` (racemic) [Example 32, N-(4-fluoro-3-(trifluoromethoxy)phenyl)-1-oxo-3-(1H-pyrazol-4-yl)-2-(2,2,2-trifluoroethyl)-1,2,3,4-tetrahydroisoquinoline-4-carboxamide], with 22 nM.
Regarding `Cn1cc([C@@H]2[C@@H](C(=O)Nc3cc(F)cc(C#N)c3)c3ccccc3C(=O)N2CC(F)(F)F)cn1` (racemic) [Example 22, N-(3-cyano-5-fluorophenyl)-3-(1-methyl-1H-pyrazol-4-yl)-1-oxo-2-(2,2,2-trifluoroethyl)-l,2,3,4-tetrahydroisoquinoline-4-carboxamide], the EC50 is 9 nM.
Consider `CC(C)CN1C(=O)c2ccccc2[C@H](C(=O)Nc2cc(F)cc(C#N)c2)[C@H]1c1cccnc1` (racemic) [Example 23, N-(3-cyano-5-fluorophenyl)-2-isobutyl-1-oxo-3-(pyridin-3-yl)-1,2,3,4-tetrahydroisoquinoline-4-carboxamide], for which the EC50 was found to be 20 nM.
The same measure, in the same setting: for `CC(C)CN1C(=O)c2ccc(F)cc2[C@H](C(=O)Nc2cc(F)cc(C#N)c2)[C@H]1c1ccc(C#N)s1` (racemic) [Example 51, N-(3-cyano-5-fluorophenyl)-3-(5-cyanothiophen-2-yl)-6-fluoro-2-isobutyl-1-oxo-1,2,3,4-tetrahydroisoquinoline-4-carboxamide] the value was 5 nM; for `O=C(Nc1ccc(F)c(OC(F)(F)F)c1)[C@H]1c2ccccc2C(=O)N(CC(F)(F)F)[C@@H]1c1cccnc1` (racemic) [Example 36, N-(4-fluoro-3-(trifluoromethoxy)phenyl)-1-oxo-3-(pyridin-3-yl)-2-(2,2,2-trifluoroethyl)-1,2,3,4-tetrahydroisoquinoline-4-carboxamide], 89 nM.
Regarding `Cn1cc([C@@H]2[C@@H](C(=O)Nc3cccc(C#N)c3)c3ccccc3C(=O)N2CC(F)(F)F)cn1` (racemic) [Example 16, N-(3-cyanophenyl)-3-(1-methyl-1H-pyrazol-4-yl)-1-oxo-2-(2,2,2-trifluoroethyl)-1,2,3,4-tetrahydroisoquinoline-4-carboxamide], the EC50 amounted to 22 nM.
Still for that read-out and setting: then `N#Cc1ccc([C@@H]2[C@@H](C(=O)Nc3ccc(F)c(C#N)c3)c3ccccc3C(=O)N2CC2CC2)s1` (racemic) [Example 54, N-(3-cyano-4-fluorophenyl)-3-(5-cyanothiophen-2-yl)-2-(cyclopropylmethyl)-1-oxo-1,2,3,4-tetrahydroisoquinoline-4-carboxamide], with 11 nM; and `N#Cc1cc(NC(=O)[C@H]2c3ccccc3C(=O)N(CC(F)(F)F)[C@@H]2c2cccnc2)ccc1F` (racemic) [Example 6, N-(3-cyano-4-fluorophenyl)-1-oxo-3-(pyridin-3-yl)-2-(2,2,2-trifluoroethyl)-1,2,3,4-tetrahydroisoquinoline-4-carboxamide], with 54 nM.
The same measure, in the same setting: for `Cn1cc([C@@H]2[C@@H](C(=O)Nc3cc(Cl)cc(C#N)c3)c3ccccc3C(=O)N2CC(F)(F)F)cn1` (racemic) [Example 10, N-(3-chloro-5-cyanophenyl)-3-(1-methyl-1H-pyrazol-4-yl)-1-oxo-2-(2,2,2-trifluoroethyl)-1,2,3,4-tetrahydroisoquinoline-4-carboxamide] the value was 6 nM.
With `CC(C)CN1C(=O)c2cc(F)ccc2[C@H](C(=O)Nc2ccc(F)c(C#N)c2)[C@H]1c1cnn(C)c1` (racemic) [Example 45, N-(3-cyano-4-fluorophenyl)-7-fluoro-2-isobutyl-3-(1-methyl-1H-pyrazol-4-yl)-1-oxo-1,2,3,4-tetrahydroisoquinoline-4-carboxamide], the EC50 is 20 nM.
Turning to `CC(C)CN1C(=O)c2ccccc2[C@H](C(=O)Nc2cc(F)cc(C#N)c2)[C@H]1c1cn[nH]c1` (racemic) [Example 19, N-(3-cyano-5-fluorophenyl)-2-isobutyl-1-oxo-3-(1H-pyrazol-4-yl)-1,2,3,4-tetrahydroisoquinoline-4-carboxamide], the EC50 is 4 nM.
Same read-out and setting: then `COc1ccc2c(c1)C(=O)N(CC(C)C)[C@H](c1cccnc1)[C@H]2C(=O)Nc1ccc(F)c(C#N)c1` (racemic) [Example 53, N-(3-cyano-4-fluorophenyl)-2-isobutyl-7-methoxy-1-oxo-3-(pyridin-3-yl)-1,2,3,4-tetrahydroisoquinoline-4-carboxamide], with 150 nM.

Still in this experiment, the particulars now being: separated enantiomers, assayed as described in 4a; listed as 6 d; read-out: Potency (nM, 3D7 strain).
As to `N#Cc1cc(NC(=O)C2c3ccccc3C(=O)N(CC(F)(F)F)C2c2cccnc2)ccc1F` (single isomer, unassigned; isomer d) [Example 6 d-isomer, d-N-(3-cyano-4-fluoro) -1-Oxo-3-pyridin-3-yl-2-(2,2,2-trifluoro-ethyl)-1,2,3,4-tetrahydro-isoquinoline-4-carboxamide], the EC50 amounted to 15 nM.

Staying with this experiment, now noted: separated enantiomers, assayed as described in 4a; read-out: Potency (nM, 3D7 strain).
Take `N#Cc1cc(F)cc(NC(=O)C2c3ccccc3C(=O)N(CC(F)(F)F)C2c2cn[nH]c2)c1` (single isomer, unassigned; isomer d) [Example 20 d-isomer, d-N-(3-cyano-5-fluorophenyl)-1-oxo-3-(1H-pyrazol-4-yl)-2-(2,2,2-trifluoroethyl)-1,2,3,4-tetrahydroisoquinoline-4-carboxamide]: the EC50 worked out at 11 nM.
